These results are taken from patent publication US10028916B2, “Orally disintegrating dosage form for administration of avanafil, and associated methods of manufacture and use” (Vivus, Inc., priority 2014, dated 2018).

A short description of series [1]: Aqueous solubility of avanafil by HPLC at a range of pH values. Particulars: sodium carbonate buffer, thermodynamic from solid, Solution 10, 0.1N Na2CO3, pH 10.0. Format: physicochemical.
The conditions of series [2]: cited from earlier work.
The nature of series [3]: Aqueous solubility of avanafil by HPLC at a range of pH values. The format is physicochemical. Particulars: thermodynamic from solid. As to the method: A high performance liquid chromatography (HPLC) procedure was used to evaluate the aqueous solubility of avanafil (obtained from Tanabe Seiyaku Co., LTD, purity, 97.0% to 103% with an observed purity of 98.89%; particle diameter, 10-20 microns with median observed particle diameter of 18.47 microns) at a range of pH values. The HPLC conditions were as follows: system, HP Model 1100; analytical column, Supelco Kromasil C8, 4.6 mm×250 mm, 5 μm particle size; assay injection volume, 20 μl; stock stability injection volume, 0.5 μl; needle wash volume, 91 μl; mobile phase flow rate, 1.00 ml/minute; column temperature, 30° C.; detection wavelength 246 nm; flow cell path length, 10 mm; range step 2.00 nm; threshold, 1.00 mAU; stop time, 30 minutes. Solutions 1, 2, 3, 6, 7, 8, 11, and 12 were buffered to pH values of 0.99, 2.00, 3.00, 6.00, 7.00, 8.00, 11.0, and 12.0, respectively, using a phosphate buffer, 0.1M KH2PO4. Solutions 4 and 5 were buffered to pH values of 4.00 and 5.00, respectively, using a sodium acetate buffer, 0.1M NaOAc, while solutions 9 and 10 were respectively buffered to pH values of 9.00 and 10.00 using a sodium carbonate buffer, 0.1M Na2CO3.

The structures appear in SMILES notation. Converted amounts (≈) assume the structure as drawn. Like-named read-outs stand apart in the source and are kept apart here.

Broadly, the solubility is how much of the substance goes into solution per volume.

Turning to `COc1ccc(CNc2nc(N3CCC[C@H]3CO)ncc2C(=O)NCc2ncccn2)cc1Cl` [avanafil, 4-[(3-chloro-4-methoxybenzyl)amino]-2-[2-(hydroxymethyl)-1-pyrrolidinyl]-N-(2-pyrimidinylmethyl)-5-pyrimidinecarboxamide], the solubility in series [1] was below 0.05 µg/mL; in series [3] (phosphate buffer, aqueous buffer, Solution 1, 0.1M KH2PO4, pH 0.999), above 199000 µg/mL; in series [3] (phosphate buffer, aqueous buffer, Solution 2, 0.1M KH2PO4, pH 2.00) it was 35000 µg/mL (≈ 72300 µM); in series [3] (phosphate buffer, aqueous buffer, Solution 3, 0.1M KH2PO4, pH 3.00), 1700 µg/mL (≈ 3510 µM); in series [3] (phosphate buffer, aqueous buffer, Solution 6, 0.1M KH2PO4, pH 6.00), 1.28 µg/mL (≈ 2.64 µM); in series [3] (phosphate buffer, aqueous buffer, Solution 7, 0.1M KH2PO4, pH 7.00), 0.233 µg/mL (≈ 0.481 µM). Also, the solubility in series [3] (phosphate buffer, aqueous buffer, Solution 8, 0.1M KH2PO4, pH 8.00) is 0.052 µg/mL (≈ 0.107 µM); in series [3] (phosphate buffer, aqueous buffer, Solution 11, 0.1M KH2PO4, pH 11.0) it was 0.0568 µg/mL (≈ 0.117 µM); in series [3] (phosphate buffer, aqueous buffer, Solution 12, 0.1M KH2PO4, pH 12.0) it was below 0.05 µg/mL; in series [3] (sodium acetate buffer, aqueous buffer, Solution 4, 0.1M NaOAc, pH 4.00), 344 µg/mL (≈ 711 µM); in series [3] (sodium acetate buffer, aqueous buffer, Solution 5, 0.1M NaOAc, pH 5.00), 19.5 µg/mL (≈ 40.3 µM); in series [3] (sodium carbonate buffer, aqueous buffer, Solution 9, 0.1M Na2CO3, pH 9.00), below 0.05 µg/mL. Besides, in series [3] (water, ASTM Type II H2O, no buffer), the solubility was determined as 0.139 µg/mL (≈ 0.287 µM). In addition, the “mean reduction in Cmax” value in series [2] (100 mg with a high fat meal) was 24%; in series [2] (200 mg with a high fat meal), 39%. In series [2] (result in words, mainly CYP3A4, minor extent CYP2C isoform), the route of clearance result is reported as “cleared predominantly by hepatic metabolism”. Moreover, in series [2] (taken with a high fat meal), the “decrease in AUC” value was around 3.8%.
